Data from patent publication US9340577B2, “HLA binding motifs and peptides and their uses” (priority 1992, dated 2016).
No end group written: not given here.

What was measured:
Experiment in all cases: biochemical
Type in all cases: binding
[1] = target: HLA-A11 (A*1101) (Homo sapiens, UniProt P04439, A114D/D185E/E176A/F33Y/L180Q/S129P/T187R)
[2] = target: A*6801 (Homo sapiens, UniProt P04439, A269V/D185E/E176V/E277Q/E87N/F33Y/G231S/I121M/I166T/I218V/L180W/L300P/L318F/N151K/P208A/P217A/Q86R/R169H/T345S)
[3] = target: A31 (A*3101) (Homo sapiens, UniProt P04439, A270S/D185E/E176V/E277Q/F33T/G231S/G80R/H175R/I121M/I218V/I322F/K168Q/L300P/L318F/M331R/P217A/Q94H/R138Q/T323A/T345S/T97I/V358M)
[4] = target: A*3301 (Homo sapiens, UniProt P04439, A270S/D185E/E176V/E277Q/E87N/F33T/G231S/H175R/I121M/I218V/I322F/K168Q/K210R/L300P/L318F/M331R/P217A/Q86R/Q94H/R138Q/T323A/T345S/T97I/V358M/Y195H)
[5] = target: HLA-A3.2 (A*0301) (Homo sapiens, UniProt P04439)

Molecule	IC50 [1]	IC50 [2]	IC50 [3]	IC50 [4]	IC50 [5]
CSCC[C@H](NC(=O)[C@@H](NC(=O)[C@H](C)N)[C@@H](C)O)C(=O)N[C@@H](CS)C(=O)N[C@@H](CCCCN)C(=O)N[C@@H](Cc1c[nH]cn1)C(=O)N[C@@H](Cc1ccc(O)cc1)C(=O)N[C@@H](CCCNC(=N)N)C(=O)N[C@@H](CCCNC(=N)N)C(=O)O [Peptide 88.0343]	19 nM	55 nM	23 nM	0.074 µM	221 nM
CSCC[C@H](NC(=O)[C@@H](N)CCCCN)C(=O)N[C@@H](Cc1ccccc1)C(=O)N[C@@H](CS)C(=O)N[C@@H](CCC(N)=O)C(=O)N[C@@H](CC(C)C)C(=O)N[C@@H](C)C(=O)N[C@@H](CCCCN)C(=O)O [Peptide 1556.52]	22 nM	1280 nM	410 nM	> 20 µM	37 nM
CC(C)C[C@H](NC(=O)[C@H](Cc1c[nH]cn1)NC(=O)[C@H](CO)NC(=O)[C@H](CO)NC(=O)[C@H](Cc1c[nH]cn1)NC(=O)[C@H](C)NC(=O)[C@@H](N)CCCNC(=N)N)C(=O)N[C@@H](CCCCN)C(=O)O [Peptide 1556.70]	18 nM	2880 nM	619 nM	> 20 µM	27 nM
CC[C@H](C)[C@H](N)C(=O)N[C@@H](CO)C(=O)N[C@@H](Cc1ccccc1)C(=O)N[C@@H](C)C(=O)NCC(=O)N[C@H](C(=O)N[C@H](C(=O)N[C@H](C(=O)N[C@@H](CCCCN)C(=O)O)[C@@H](C)O)C(C)C)[C@@H](C)CC [Peptide 1589.17]	9.5 nM	31 nM		4.37 µM	33 nM
AACWRSRRR [Peptide 78.0322]	18800 nM	> 20000 nM	407 nM	17.5 µM	5600 nM
AAEGVGAASR [Peptide 9017.0187]	478 nM	450 nM	3270 nM	5.1 µM	> 20000 nM
AAFDLSFFLK [Peptide 9017.0189]	2.3 nM	1.9 nM	130 nM		9 nM
AFDLSHFLK [Peptide 9017.0063]	46 nM	216 nM	639 nM	1.44 µM	777 nM
AFNSSHKGR [Peptide 88.0394]	> 20000 nM	> 20000 nM	55 nM		> 20000 nM
AFRDLCIVYR [Peptide 78.0079]	4380 nM	600 nM	13 nM	0.041 µM	3110 nM
ALKGLAQSK [Peptide 88.0416]	1660 nM	> 20000 nM		> 20 µM	65 nM
ALTALIKPK [Peptide 9017.0098]	19 nM	6020 nM		> 20 µM	24 nM
AQVLHVLKRK [Peptide 88.0141]	104 nM	15800 nM		> 20 µM	161 nM
ATLQDIVLH [Peptide 78.0278]	152 nM	> 20000 nM		> 20 µM	4510 nM
CFYSPALNK [Peptide 1556.43]	74 nM	1450 nM		0.122 µM	127 nM
CTELKLVYR [Peptide 78.0334]	> 20000 nM	1330 nM	64 nM		> 20000 nM
DSNACAFLK [Peptide 1587.33]	303 nM	68 nM		0.039 µM	1420 nM
ETNEALELK [Peptide 1556.68]	93 nM	1440 nM	> 20000 nM		16800 nM
FLGAFKKFLK [Peptide 88.0169]	9.6 nM	275 nM	11 nM		3.3 nM

Molecule	IC50 [1]	IC50 [2]	IC50 [3]	IC50 [4]	IC50 [5]
FTAFLGAFK [Peptide 88.0362]	3.8 nM	5.4 nM		0.071 µM	31 nM
FTAFLGAFKK [Peptide 88.0168]	25 nM	20 nM	> 20000 nM		1900 nM
GVEFISFLR [Peptide 1587.55]	440 nM	48 nM	124 nM		> 20000 nM
GVIVMMLIR [Peptide 88.0376]	434 nM	2770 nM		0.214 µM	2380 nM
GVMCRHYKR [Peptide 88.0388]	80 nM	93 nM	37 nM		2890 nM
GVSIEWRLRR [Peptide 9017.0220]	468 nM	4420 nM	189 nM		7780 nM
IQIKRRQQK [Peptide 9012.0207]	20 nM	> 20000 nM		> 20 µM	29 nM
ITVYYGVPVWR [Peptide 1525.06]	76 nM	5.4 nM	13 nM		831 nM
IVGWPAVRER [Peptide 9017.0186]	1170 nM	81 nM	110 nM		630 nM
KAILGQVVR [Peptide 9017.0092]	5340 nM	159 nM		> 20 µM	15500 nM
KIDRLIDRIR [Peptide 9017.0249]	> 20000 nM	> 20000 nM		> 20 µM	> 20000 nM
KTLEERVKK [Peptide 78.0294]	160 nM	> 20000 nM		> 20 µM	302 nM
LLLIRFRCSK [Peptide 88.0164]	6980 nM	732 nM		> 20 µM	205 nM
LNKMFCQLAR [Peptide 1556.49]	8880 nM	1800 nM			11100 nM
LQQLLFIHFR [Peptide 9017.0241]	58 nM	81 nM	1.3 nM		2490 nM
LTALITPKK [Peptide 9017.0101]	4.2 nM	6.5 nM	4500 nM		41 nM
LVKMFCQLAK [Peptide 1556.50]	189 nM	221 nM	3340 nM		1200 nM
MLIRYTCGK [Peptide 88.0377]	14 nM	15 nM	1220 nM		34 nM
MVIEPPKLR [Peptide 88.0360]	271 nM	13 nM	729 nM		> 20000 nM

Molecule	IC50 [1]	IC50 [2]	IC50 [3]	IC50 [4]	IC50 [5]
NTMDYTNWK [Peptide 88.0425]	19 nM	13 nM	> 20000 nM		1600 nM
QLVTQLMPK [Peptide 9012.0211]	79 nM	2260 nM	> 20000 nM		88 nM
QQMNMCQWIK [Peptide 88.0186]	20 nM	197 nM		13.1 µM	346 nM
QVLHLLKRK [Peptide 88.0365]	320 nM	801 nM		1.85 µM	1550 nM
RILSTYLGR [Peptide 9017.0072]	7.2 nM	457 nM	1.6 nM		7.5 nM
RTHSSHLKSKK [Peptide 1556.76]	9.8 nM	1360 nM		10.7 µM	59 nM
RTLTLLSVTK [Peptide 1556.13]	15 nM	219 nM		6.76 µM	23 nM
RVHSSHLK [Peptide 1556.72]	13 nM	1630 nM	483 nM		144 nM
SLYGKTLEER [Peptide 78.0142]	1730 nM	178 nM		5.5 µM	56 nM
SQWIRFRCSK [Peptide 88.0147]	130 nM	11800 nM	373 nM		415 nM
STAAALYWYK [Peptide 1587.06]	1.6 nM	5.9 nM			4.5 nM
STWHWTSDNK [Peptide 1589.22]	17 nM	18 nM		> 20 µM	161 nM
TLDVYMIMVK [Peptide 9012.0258]	17 nM	2030 nM		> 20 µM	1560 nM
VSYWGVYYIK [Peptide 1589.25]	3 nM	24 nM		11.5 µM	109 nM
VTVYDGVPVWR [Peptide 1525.08]	246 nM	59 nM		5.72 µM	7840 nM
VTYHSETQR [Peptide 1589.10]	22 nM	32 nM	66 nM		29 nM
WFFVETIVEK [Peptide 88.0171]	1480 nM		18300 nM	0.201 µM	13700 nM
WTIVYIEYRK [Peptide 9017.0243]	37 nM	0.94 nM	1350 nM		4890 nM
WTLELLEELK [Peptide 9017.0238]	3840 nM		17200 nM	> 20 µM	> 20000 nM
